Source: patent US5955440A, “Macrolide LHRH antagonists” (Abbott Laboratories, priority 1998, dated 1999)

Target: T1, LHRH rat pituitary receptor (Rattus norvegicus, UniProt P30969)
T1 construct: from tissue; host or cells: rat pituitary
T1 sequence (P30969 1-327): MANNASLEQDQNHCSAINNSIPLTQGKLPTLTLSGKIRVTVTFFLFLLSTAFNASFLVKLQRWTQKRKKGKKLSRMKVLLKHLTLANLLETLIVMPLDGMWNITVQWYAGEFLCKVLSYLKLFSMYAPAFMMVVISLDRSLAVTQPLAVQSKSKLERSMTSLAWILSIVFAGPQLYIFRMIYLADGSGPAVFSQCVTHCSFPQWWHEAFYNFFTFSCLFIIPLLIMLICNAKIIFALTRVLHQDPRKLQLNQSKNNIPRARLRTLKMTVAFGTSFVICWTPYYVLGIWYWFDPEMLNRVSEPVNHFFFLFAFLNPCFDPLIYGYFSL
Assay: LHRH rat pituitary receptor binding (pKI)
Details: negative logarithm of the equilibrium dissociation constants; for Ki: Table 1, read-out: receptor binding affinity (pKI) (converted)
Protocol: Representative compounds of the present invention were evaluated in in vitro tests for LHRH rat pituitary receptor binding (pKI) and for LH inhibition from rat pituitary cells for antagonist potency (pA2). The tests employed the methods detailed in F. Haviv, et al. J. Med. Chem., 32: 2340-2344 (1989). The receptor binding affinity (pKI) is the negative logarithm of the equilibrium dissociation constants.

SMILES | Ki | receptor binding affinity (pKI) (Table 1)
CC[C@H]1OC(=O)[C@H](C)[C@@H](O[C@H]2C[C@@](C)(OC)[C@@H](O)[C@H](C)O2)[C@H](C)[C@@H](O[C@@H]2O[C@H](C)C[C@H](N(C)C3CCCC3)[C@H]2O)[C@](C)(OC)C[C@@H](C)C(=O)[C@H](C)[C@H]2N(CCc3cccc(Cl)c3)C(=O)O[C@]12C [Example 24, 3'-N-Desmethyl-3'-N-cyclopentyl-11-deoxy-11-[carboxy-(3-chlorophenethylamino)]-6-O-methyl-erythromycin A 11,12-(cyclic carbamate)] | 2.75 nM | –
CC[C@H]1OC(=O)[C@H](C)[C@@H](O[C@H]2C[C@@](C)(OC)[C@@H](O)[C@H](C)O2)[C@H](C)[C@@H](O[C@@H]2O[C@H](C)C[C@H](N(C)Cc3ccncc3)[C@H]2O)[C@](C)(OC)C[C@@H](C)C(=O)[C@H](C)[C@H]2N(CCc3ccc(Cl)cc3)C(=O)O[C@]12C [Example 34, 3'-N-Desmethyl-3'-N-(4-pyridylmethyl)-11-deoxy-11-[carboxy-(4-chlorophenethylamino)]-6-O-methyl-erythromycin A 11,12-(cyclic carbamate)] | 10 nM | –
CCC(C)N(C)[C@H]1C[C@@H](C)O[C@@H](O[C@@H]2[C@@H](C)[C@H](O[C@H]3C[C@@](C)(OC)[C@@H](O)[C@H](C)O3)[C@@H](C)C(=O)O[C@H](CC)[C@@]3(C)OC(=O)N(CCc4ccc(Cl)cc4)[C@@H]3[C@@H](C)C(=O)[C@H](C)C[C@@]2(C)OC)[C@@H]1O (stereo partly shown) [Example 35, 3'-N-Desmethyl-3'-N-(2-butyl)-11-deoxy-11-[carboxy-(4-chlorophenethylamino)]-6-O-methyl-erythromycin A 11,12-(cyclic carbamate)] | 7.59 nM | –
CCC(CC)N(C)[C@H]1C[C@@H](C)O[C@@H](O[C@@H]2[C@@H](C)[C@H](O[C@H]3C[C@@](C)(OC)[C@@H](O)[C@H](C)O3)[C@@H](C)C(=O)O[C@H](CC)[C@@]3(C)OC(=O)N(CCc4ccc(Cl)cc4)[C@@H]3[C@@H](C)C(=O)[C@H](C)C[C@@]2(C)OC)[C@@H]1O [Example 36, 3'-N-Desmethyl-3'-N-(3-pentyl)-11-deoxy-11-[carboxy-(4-chlorophenethylamino)]-6-O-methyl-erythromycin A 11,12-(cyclic carbamate)] | 9.12 nM | –
CC[C@H]1OC(=O)[C@H](C)[C@@H](O[C@H]2C[C@@](C)(OC)[C@@H](O)[C@H](C)O2)[C@H](C)[C@@H](O[C@@H]2O[C@H](C)C[C@H](N(C)CC3CC3)[C@H]2O)[C@](C)(OC)C[C@@H](C)C(=O)[C@H](C)[C@H]2N(CCc3ccc(Cl)cc3)C(=O)O[C@]12C [Example 37, 3'-N-Desmethyl-3'-N-(cyclopropylmethyl)-11-deoxy-11-[carboxy-(4-chlorophenethylamino)]-6-O-methyl-erythromycin A 11,12-(cyclic carbamate)] | 9.12 nM | –
CC[C@H]1OC(=O)[C@H](C)[C@@H](O[C@H]2C[C@@](C)(OC)[C@@H](O)[C@H](C)O2)[C@H](C)[C@@H](O[C@@H]2O[C@H](C)C[C@H](N(C)CCC3CC3)[C@H]2O)[C@](C)(OC)C[C@@H](C)C(=O)[C@H](C)[C@H]2N(CCc3ccc(Cl)cc3)C(=O)O[C@]12C [Example 38, 3'-N-Desmethyl-3'-N-[2-(cyclopropyl)-ethyl]-11-deoxy-11-[carboxy-(4-chlorophenethylamino)]-6-O-methyl-erythromycin A 11,12-(cyclic carbamate)] | – | 8.17
CCCN(C)[C@H]1C[C@@H](C)O[C@@H](O[C@@H]2[C@@H](C)[C@H](O[C@H]3C[C@@](C)(OC)[C@@H](O)[C@H](C)O3)[C@@H](C)C(=O)O[C@H](CC)[C@@]3(C)OC(=O)N(CCc4ccc(OC)cc4)[C@@H]3[C@@H](C)C(=O)[C@H](C)C[C@@]2(C)OC)[C@@H]1O [Example 39, 3'-N-Desmethyl-3'-N-propyl-11-deoxy-11-[carboxy-(4-methoxyphenethylamino)]-6-O-methyl-erythromycin A 11,12-(cyclic carbamate)] | 5.13 nM | –
CC[C@H]1OC(=O)[C@H](C)[C@@H](O[C@H]2C[C@@](C)(OC)[C@@H](O)[C@H](C)O2)[C@H](C)[C@@H](O[C@@H]2O[C@H](C)C[C@H](N(C)C3CCCC3)[C@H]2O)[C@](C)(OC)C[C@@H](C)C(=O)[C@H](C)[C@H]2N(CCc3ccc(OC)cc3)C(=O)O[C@]12C [Example 40, 3'-N-Desmethyl-3'-N-cyclopentyl-11-deoxy-11-[carboxy-(4-methoxyphenethylamino)]-6-O-methyl-erythromycin A 11,12-(cyclic carbamate)] | 5.75 nM | –
CCCN(C)[C@H]1C[C@@H](C)O[C@@H](O[C@@H]2[C@@H](C)[C@H](O[C@H]3C[C@@](C)(OC)[C@@H](O)[C@H](C)O3)[C@@H](C)C(=O)O[C@H](CC)[C@@]3(C)OC(=O)N(CCc4ccc(C)c(C)c4)[C@@H]3[C@@H](C)C(=O)[C@H](C)C[C@@]2(C)OC)[C@@H]1O [Example 41, 3'-N-Desmethyl-3'-N-propyl-11-deoxy-11-[carboxy-(3,4-dimethylphenethylamino)]-6-O-methyl-erythromycin A 11,12-(cyclic carbamate)] | 8.51 nM | –
CC[C@H]1OC(=O)[C@H](C)[C@@H](O[C@H]2C[C@@](C)(OC)[C@@H](O)[C@H](C)O2)[C@H](C)[C@@H](O[C@@H]2O[C@H](C)C[C@H](N(C)C3CCCC3)[C@H]2O)[C@](C)(OC)C[C@@H](C)C(=O)[C@H](C)[C@H]2N(CCc3ccc(OC)c(Br)c3)C(=O)O[C@]12C [Example 42, 3'-N-Desmethyl-3'-N-cyclopentyl-11-deoxy-11-[carboxy-(3-bromo-4-methoxyphenethylamino)]-6-O-methyl-erythromycin A 11,12-(cyclic carbamate)] | 7.24 nM | –
CCCN(C)[C@H]1C[C@@H](C)O[C@@H](O[C@@H]2[C@@H](C)[C@H](O[C@H]3C[C@@](C)(OC)[C@@H](O)[C@H](C)O3)[C@@H](C)C(=O)O[C@H](CC)[C@@]3(C)OC(=O)N(CCc4ccc(OC)c(Br)c4)[C@@H]3[C@@H](C)C(=O)[C@H](C)C[C@@]2(C)OC)[C@@H]1O [Example 43, 3'-N-Desmethyl-3'-N-propyl-11-deoxy-11-[carboxy-(3-bromo-4-methoxyphenethylamino)]-6-O-methyl-erythromycin A 11,12-(cyclic carbamate)] | 3.55 nM | –
CCCN(C)[C@H]1C[C@@H](C)O[C@@H](O[C@@H]2[C@@H](C)[C@H](O[C@H]3C[C@@](C)(OC)[C@@H](O)[C@H](C)O3)[C@@H](C)C(=O)O[C@H](CC)[C@@]3(C)OC(=O)N(CCc4ccc(F)c(Cl)c4)[C@@H]3[C@@H](C)C(=O)[C@H](C)C[C@@]2(C)OC)[C@@H]1O [Example 44, 3'-N-Desmethyl-3'-N-propyl-11-deoxy-11-[carboxy-(3-chloro-4-fluorophenethylamino)]-6-O-methyl-erythromycin A 11,12-(cyclic carbamate)] | 1.45 nM | –
CC[C@H]1OC(=O)[C@H](C)[C@@H](O[C@H]2C[C@@](C)(OC)[C@@H](O)[C@H](C)O2)[C@H](C)[C@@H](O[C@@H]2O[C@H](C)C[C@H](N(C)Cc3ccco3)[C@H]2O)[C@](C)(OC)C[C@@H](C)C(=O)[C@H](C)[C@H]2N(CCc3ccc(F)c(Cl)c3)C(=O)O[C@]12C [Example 45, 3'-N-Desmethyl-3'-N-(2-furyl)methyl-11-deoxy-11-[carboxy-(3-chloro-4-fluorophenethylamino)]-6-O-methyl-erythromycin A 11,12-(cyclic carbamate)] | 3.55 nM | –
CC[C@H]1OC(=O)[C@H](C)[C@@H](O[C@H]2C[C@@](C)(OC)[C@@H](O)[C@H](C)O2)[C@H](C)[C@@H](O[C@@H]2O[C@H](C)C[C@H](N(C)Cc3ccc(CO)o3)[C@H]2O)[C@](C)(OC)C[C@@H](C)C(=O)[C@H](C)[C@H]2N(CCc3ccc(F)c(Cl)c3)C(=O)O[C@]12C [Example 46, 3'-N-Desmethyl-3'-N-[2-(5-hydroxymethyl)furyl]methyl-11-deoxy-11-[carboxy-(3-chloro-4-fluorophenethylamino)]-6-O-methyl-erythromycin A 11,12-(cyclic carbamate)] | 1.15 nM | –
CC[C@H]1OC(=O)[C@H](C)[C@@H](O[C@H]2C[C@@](C)(OC)[C@@H](O)[C@H](C)O2)[C@H](C)[C@@H](O[C@@H]2O[C@H](C)C[C@H](N(C)Cc3ccccn3)[C@H]2O)[C@](C)(OC)C[C@@H](C)C(=O)[C@H](C)[C@H]2N(CCc3ccc(F)c(Cl)c3)C(=O)O[C@]12C [Example 47, 3'-N-Desmethyl-3'-N-(2-pyridyl)methyl-11-deoxy-11-[carboxy-(3-chloro-4-fluorophenethylamino)]-6-O-methyl-erythromycin A 11,12-(cyclic carbamate)] | 2.51 nM | –
CC[C@H]1OC(=O)[C@H](C)[C@@H](O[C@H]2C[C@@](C)(OC)[C@@H](O)[C@H](C)O2)[C@H](C)[C@@H](O[C@@H]2O[C@H](C)C[C@H](N(C)Cc3cccc(C)n3)[C@H]2O)[C@](C)(OC)C[C@@H](C)C(=O)[C@H](C)[C@H]2N(CCc3ccc(F)c(Cl)c3)C(=O)O[C@]12C [Example 48, 3'-N-Desmethyl-3'-N-[2-(6-methyl)pyridyl]methyl-11-deoxy-11-[carboxy-(3-chloro-4-fluorophenethylamino)]-6-O-methyl-erythromycin A 11,12-(cyclic carbamate)] | 1.91 nM | –
